{"source": "patent US9126060B2", "about": "“Cosmetic use of geranylgeranyl-2-propanol” (SEDERMA, priority 2010, dated 2015)", "key": {"β-galactosidase": {"test_system": "β-galactosidase", "experiment": "Cell-free β-galactosidase inhibition check", "format": "biochemical", "conditions": "cell-free system"}, "[1]": {"experiment": "Lipidic peroxidation of liposomes by UVA (conjugated dienes at 233 nm)", "format": "biochemical", "from_the_text": "Principle: Cell membranes are composed of oxidable phospholipids. Using a cell-free model (unsaturated phospholipids based liposomes) and a reproducible oxidative stress (UVA radiation), it is possible to follow spectrophotometrically (at 233 nm) the formation of early by-products of lipoperoxidation that are conjugated dienes. An anti-lipoperoxidant agent can reduce or even eliminate this phenomenon."}, "syndecan 1": {"test_system": "syndecan 1", "experiment": "Syndecan 1 synthesis in NHK supernatants (ELISA)", "format": "cell-based, human", "conditions": "for Syndecan 1: 48 h, n = 3", "description": "Principle: Human keratinocytes (NHK) are cultivated in a growth medium. After 6 days of incubation, the cells are contacted or not with the tested products (GGP and GGA) at 3, 5 or 7 ppm for 48 h. After incubation, the supernatants are taken and the syndecan 1 content is assayed by ELISA in these supernatants. The cell layers are sonicated and the cell number is evaluated by Hoechst method."}, "stratum corneum": {"test_system": "stratum corneum", "experiment": "Ex vivo lipoperoxidation of stratum corneum extracts from volunteers (8-isoprostanes ELISA)", "format": "in vivo, human", "conditions": "cream containing 0.04% of GGP 2 times daily for 2 months on forearm; compared with placebo extracts; H2O2/FeCl2 stress; 13 volunteers", "from_the_text": "Lipids of the stratum corneum are the primary targets of free radical aggressions. Thus, it seemed interesting to test the antiradical capacity of the GGP in ex vivo condition on extracts of stratum corneum from volunteers who applied for 2 months, on one arm a placebo cream and on the other arm the GGP cream (Formulation 2/2 in the examples given above). These extracts are stressed to oxidize lipids. A lower oxidation in skin extracts which were in contact with the GGP is seeked.\nPrinciple: 13 volunteers have applied 2 times daily for 2 months in a randomized manner the cream containing 0.04% of GGP on one forearm. The placebo cream was applied controlateral. Each subject was therefore their own control. At T0 and T2, specimens of stratum corneum were taken on the 2 arms with 3 adhesive discs per aim, and for each disk 15 take off (saturation of the disk).\nThe disks were stored at −20° C. until lipoperoxidation testing. After rapid thawing at room temperature, the 3 discs from the same arms were collected and sonicated in a suitable diluent, to take off and recover the maximum amount of stratum corneum samples. The resulting suspension was then stressed overnight at 45° C., using a H2O2/FeCl2 solution. The lipid peroxidation was assessed by measuring 8-isoprostanes (ELISA assay). The data were normalized using a protein assay."}, "human dermal fibroblasts": {"test_system": "human dermal fibroblasts", "experiment": "Senescence associated β-galactosidase activity in fibroblasts after oxidising stress (FDG fluorimetry)", "format": "cell-based", "conditions": "for β-galactosidase relative activity: after oxidising stress, n = 4", "description": "Principle: Proliferative human dermal fibroblasts were contacted or not with the GGP for 72 hours in a growth medium. After this first incubation, the cells were subjected for 5 days to an oxidative stress daily, one hour each, in a basic medium, common to all cultures. This stress is known to create a SIPS and to induce a strong increase in β-galactosidase activity in the stressed culture compared to an unstressed culture. Between two stress cells are returned to the growth medium with or without the substance tested. After the fifth stress, β-galactosidase activity is evaluated.\nEvaluation of β-galactosidase activity is done after fixing the layers. They are put in contact with a substrate of β-galactosidase nonfluorescent FDG (fluorescein di-β-galactopyranoside), which will release a fluorescent compound upon hydrolysis by β-galactosidase. The emitted fluorescence is quantified in a fluorometer. It will increase with the amount of senescent cells present in culture. The relative activity of β-galactosidase thus found is 2974+/−957 UFA/million cells in a proliferative culture and increases by a factor 5 (p<0.01) in a culture little to not proliferative."}, "[2]": {"test_system": "Normal human dermal fibroblasts", "experiment": "Mean telomere length of fibroblasts in natural senescence (real-time quantitative PCR)", "format": "cell-based", "conditions": "1.65 ppm", "from_the_text": "The applicant has performed the average length measurement of the telomeres of a culture by a rapid method using PCR (Polymerase Chain Reaction) real-time quantitative.\nThis method relies on the use of two oligonucleotide primers specific of the telomeric repeat sequence (TTAGGG) and thus capable of hybridizing themselves to each of the two complementary strands of telomeric DNA, and then able to be amplified during the PCR cycles proportionally to the average length of telomeres of the genomic DNA of a given culture. A fluorescent molecule, intercalated into DNA double strand, is used to quantify the phenomenon (hybridization+amplification) at the end of each cycle. The parameter for evaluating the significance of this phenomenon is the Ct, cycle number of hybridization amplification necessary to reach a given fluorescence threshold above background noise.\nEach Ct will be converted into an average length of telomeres, with a reference range obtained with successive dilutions from a standard solution of a synthetic oligonucleotide of 84 bases, consisting of 14 repeats of the TTAGGG sequence, each of these dilutions (or point range) being subjected to real-time quantitative PCR.\nTo be accurate, the assessment must take into account the number of genomes present. The latter will be appreciated by a PCR conducted in parallel with a control gene, 36B4, encoding a ribosomal phosphoprotein with two primers (oligonucleotides) specific for this gene. The Ct obtained in this PCR will be converted into a number of genomes using a standard range made from an oligonucleotide of 75 bases, representing the amplicon obtained with primers specific to 36B4.\nTherefore is obtained for each total DNA extracts from a given culture, an average length of telomere per genome.\nPrinciple: Normal human dermal fibroblasts are grown on several cell passages, in contact or not with the GGP until a strong slowdown and little or not proliferative cells. At this stage, cultures are stopped, DNA extracted and the average telomere length measured for each culture."}, "presenescent fibroblasts": {"test_system": "presenescent fibroblasts", "experiment": "Mitochondrial membrane potential of presenescent fibroblasts (dye ratio λ520/λ590)", "format": "cell-based", "conditions": "for Improvement of the respiration potential / Change with regard to non stressed young cells: with oxidative stress; for Change with regard to non stressed young cells: control −100%", "from_the_text": "It is possible to measure the membrane potential through a specific membrane dye. Depending on the level of the membrane potential, this dye is rather present as monomer (emission fluorescence at 520 nm) or rather in the multimetric form (fluorescence emission at 590 nm). High membrane potential promotes a multimetric form.\nThe ratio λ520/λ590 varies inversely with the membrane potential. The lower the ratio is, the higher the membrane potential is. The increase in the ratio thus reflects a decrease in membrane potential. The ratio λ520/λ590 for young and proliferating cells is 2.97+/−0.17.\n[…] After this period, the membrane potential of half of the cultures was measured.\nThe other half of the cultures underwent an oxidative stress (hydrogen peroxide) before measuring their membrane potential."}}, "data": [{"smiles": "CC(C)=CCC/C(C)=C/CC/C(C)=C/CC/C(C)=C/CCC(C)O", "note": "(stereo not drawn) [GGP, 6,10,14,18-tetramethylnonadeca-5,9,13,17-tetraen-2-ol]", "values": [{"measurement": "inhibition of β-galactosidase", "setting": "β-galactosidase", "value": "not an inhibitor of β-galactosidase"}, {"measurement": "% of peroxidation inhibition", "setting": "[1]; 8 ppm", "value": 14, "unit": "%"}, {"measurement": "% of peroxidation inhibition", "setting": "[1]; 26 ppm", "value": 24, "unit": "%"}, {"measurement": "% of peroxidation inhibition", "setting": "[1]; 80 ppm", "value": 75, "unit": "%"}, {"measurement": "Change (%) of syndecan 1 vs control", "setting": "syndecan 1; 3 ppm", "value": "+96%; p < 0.01"}, {"measurement": "Syndecan 1", "setting": "syndecan 1; 3 ppm", "value": "135.3 +/− 6.3 pg/10^6 cell"}, {"measurement": "Change (%) of syndecan 1 vs control", "setting": "syndecan 1; 5 ppm", "value": "+190%; p < 0.01"}, {"measurement": "Syndecan 1", "setting": "syndecan 1; 5 ppm", "value": "200.6 +/− 15.8 pg/10^6 cell"}, {"measurement": "Syndecan 1", "setting": "syndecan 1; 7 ppm", "value": "265.5 +/− 24.3 pg/10^6 cell"}, {"measurement": "level of protection against oxidation", "setting": "stratum corneum", "value": "+44%"}, {"measurement": "Change with regard to control (β-galactosidase)", "setting": "human dermal fibroblasts; 3 ppm", "value": "−35%; p = 0.05"}, {"measurement": "β-galactosidase relative activity", "setting": "human dermal fibroblasts; 3 ppm", "value": "3702 +/− 992 FAU/10^6 cells"}, {"measurement": "Change with regard to control (β-galactosidase)", "setting": "human dermal fibroblasts; 5 ppm", "value": "−51%; p < 0.02"}, {"measurement": "β-galactosidase relative activity", "setting": "human dermal fibroblasts; 5 ppm", "value": "2789 +/− 803 FAU/10^6 cells"}, {"measurement": "Mean telomere length", "setting": "[2]; presenescent cells, n = 3", "value": "8.35 +/− 0.75 kb/genome"}, {"measurement": "protection against natural telomere erosion (length vs control)", "setting": "[2]; vs presenescent control", "value": "+1.45 kb →"}, {"measurement": "Telomere erosion due to aging", "setting": "[2]; vs proliferative cells", "value": "−2.31 kb; nsd kb/genome"}, {"measurement": "% of protection of the respiration potential", "setting": "presenescent fibroblasts; 3 ppm, no stress", "value": "+22%; nsd"}, {"measurement": "ΔΨ loss with regard to non stressed young cells", "setting": "presenescent fibroblasts; 3 ppm, one week, no stress", "value": "1.11 +/− 0.33"}, {"measurement": "Improvement of the respiration potential", "setting": "presenescent fibroblasts; 3 ppm", "value": "+35%; p < 0.05"}, {"measurement": "ΔΨ loss with regard to non stressed young cells", "setting": "presenescent fibroblasts; 3 ppm, with oxidative stress (hydrogen peroxide)", "value": "3.57 +/− 0.69"}, {"measurement": "Change with regard to non stressed young cells", "setting": "presenescent fibroblasts; 3 ppm", "value": "−65", "unit": "%"}, {"measurement": "% of protection of the respiration potential", "setting": "presenescent fibroblasts; 5 ppm, no stress", "value": "+41%; p < 0.01"}, {"measurement": "ΔΨ loss with regard to non stressed young cells", "setting": "presenescent fibroblasts; 5 ppm, one week, no stress", "value": "0.84 +/− 0.08"}, {"measurement": "Improvement of the respiration potential", "setting": "presenescent fibroblasts; 5 ppm", "value": "+63%; p < 0.01"}, {"measurement": "ΔΨ loss with regard to non stressed young cells", "setting": "presenescent fibroblasts; 5 ppm, with oxidative stress (hydrogen peroxide)", "value": "2.03 +/− 0.69"}, {"measurement": "Change with regard to non stressed young cells", "setting": "presenescent fibroblasts; 5 ppm", "value": "−37", "unit": "%"}]}]}
